Test results published in ChEMBL document CHEMBL3797029, “Purinylpyridinylamino-based DFG-in/αC-helix-out B-Raf inhibitors: Applying mutant versus wild-type B-Raf selectivity indices for compound profiling” (Bioorg Med Chem, 2016).

Legend:
[1] = molecular target: T1, Serine/threonine-protein kinase B-raf (Homo sapiens, UniProt P15056); test: Inhibition of wild type B-Raf (unknown origin) assessed as MEK1 phosphorylation using MEK1-Avitag as substrate after 1 hr by HTRF assay
[2] = molecular target: Mast/stem cell growth factor receptor Kit (Homo sapiens) (UniProt P10721); test: Inhibition of partial length wild type human KIT expressed in bacterial system assessed as enzyme activity at 1 uM relative to control; design: scale not given: the % may be the effect or the level left
[3] = molecular target: Phosphatidylinositol 4,5-bisphosphate 3-kinase catalytic subunit alpha isoform (Homo sapiens) (UniProt P42336); test: Inhibition of partial length wild type human PIK3CA expressed in mammalian system assessed as enzyme activity at 1 uM relative to control; design: scale not given: the % may be the effect or the level left
[4] = molecular target: Tyrosine-protein kinase ABL1 (Homo sapiens) (UniProt P00519); test: Inhibition of partial length wild type phosphorylated human ABL1 expressed in mammalian system assessed as enzyme activity at 1 uM relative to control; design: scale not given: the % may be the effect or the level left
[5] = molecular target: Mitogen-activated protein kinase 1 (Homo sapiens) (UniProt P28482); test: Inhibition of full length wild type human ERK2 expressed in bacterial system assessed as enzyme activity at 1 uM relative to control; design: scale not given: the % may be the effect or the level left
Chain of Mitogen-activated protein kinase 1 (Homo sapiens) (P28482 whole entry): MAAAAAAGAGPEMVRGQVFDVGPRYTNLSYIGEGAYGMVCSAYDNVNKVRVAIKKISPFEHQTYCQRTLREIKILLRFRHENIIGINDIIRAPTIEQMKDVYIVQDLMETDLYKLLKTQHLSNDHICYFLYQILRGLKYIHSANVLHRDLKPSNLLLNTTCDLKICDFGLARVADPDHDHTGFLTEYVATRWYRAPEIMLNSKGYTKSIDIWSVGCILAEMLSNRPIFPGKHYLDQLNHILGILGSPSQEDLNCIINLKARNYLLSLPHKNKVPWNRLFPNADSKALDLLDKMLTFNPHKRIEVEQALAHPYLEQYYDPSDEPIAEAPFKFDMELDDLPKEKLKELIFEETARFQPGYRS

[6] = molecular target: RAC-alpha serine/threonine-protein kinase (Homo sapiens) (UniProt P31749); test: Inhibition of partial length wild type human AKT1 expressed in bacterial system assessed as enzyme activity at 1 uM relative to control; design: scale not given: the % may be the effect or the level left
[7] = molecular target: Serine/threonine-protein kinase Nek6 (Homo sapiens) (UniProt Q9HC98); test: Inhibition of full length wild type human NEK6 expressed in bacterial system assessed as enzyme activity at 1 uM relative to control; design: scale not given: the % may be the effect or the level left
Chain of Serine/threonine-protein kinase Nek6 (Homo sapiens) (Q9HC98 whole entry): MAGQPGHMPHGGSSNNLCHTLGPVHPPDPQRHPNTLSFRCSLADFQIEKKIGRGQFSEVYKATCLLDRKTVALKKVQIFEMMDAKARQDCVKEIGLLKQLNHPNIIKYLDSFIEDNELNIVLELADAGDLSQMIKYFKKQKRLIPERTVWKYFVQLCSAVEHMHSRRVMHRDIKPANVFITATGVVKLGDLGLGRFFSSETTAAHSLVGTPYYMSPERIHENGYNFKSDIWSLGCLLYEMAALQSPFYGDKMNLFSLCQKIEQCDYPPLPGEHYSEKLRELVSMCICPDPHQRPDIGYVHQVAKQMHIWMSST

[8] = molecular target: Calcium/calmodulin-dependent protein kinase type IV (Homo sapiens) (UniProt Q16566); test: Inhibition of partial length wild type human CAMK4 expressed in bacterial system assessed as enzyme activity at 1 uM relative to control; design: scale not given: the % may be the effect or the level left
[9] = molecular target: Casein kinase I isoform delta (Homo sapiens) (UniProt P48730); test: Inhibition of full length wild type human CSNK1D expressed in bacterial system assessed as enzyme activity at 1 uM relative to control; design: scale not given: the % may be the effect or the level left
[10] = molecular target: Casein kinase II subunit alpha (Homo sapiens) (UniProt P68400); test: Inhibition of full length wild type human CSNK2A1 expressed in mammalian system assessed as enzyme activity at 1 uM relative to control; design: scale not given: the % may be the effect or the level left
Chain of Casein kinase II subunit alpha (Homo sapiens) (P68400 whole entry, looked up): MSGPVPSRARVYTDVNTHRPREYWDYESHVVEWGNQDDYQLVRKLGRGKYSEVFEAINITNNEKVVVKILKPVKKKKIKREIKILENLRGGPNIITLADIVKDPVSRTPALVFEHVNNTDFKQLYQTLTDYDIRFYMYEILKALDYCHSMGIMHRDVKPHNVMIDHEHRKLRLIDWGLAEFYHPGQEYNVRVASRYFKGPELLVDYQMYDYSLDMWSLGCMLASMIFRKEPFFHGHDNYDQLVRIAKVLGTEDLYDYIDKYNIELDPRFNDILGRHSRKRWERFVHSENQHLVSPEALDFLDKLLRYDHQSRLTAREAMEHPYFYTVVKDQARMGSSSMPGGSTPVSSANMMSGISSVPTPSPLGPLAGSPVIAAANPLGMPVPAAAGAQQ

[11] = test system: cAMP-dependent protein kinase catalytic subunit alpha; test: Inhibition of partial length wild type human PKACalpha expressed in bacterial system assessed as enzyme activity at 1 uM relative to control; design: scale not given: the % may be the effect or the level left
[12] = molecular target: Serine/threonine-protein kinase mTOR (Homo sapiens) (UniProt P42345); test: Inhibition of partial length wild type human MTOR expressed in mammalian system assessed as enzyme activity at 1 uM relative to control; design: scale not given: the % may be the effect or the level left
[13] = molecular target: Tyrosine-protein kinase JAK2 (Homo sapiens) (UniProt O60674); test: Inhibition of partial length wild type human JAK2 (catalytic JH1 domain) expressed in mammalian system assessed as enzyme activity at 1 uM relative to control; design: scale not given: the % may be the effect or the level left
[14] = molecular target: Wee1-like protein kinase (Homo sapiens) (UniProt P30291); test: Inhibition of partial length wild type human WEE1 expressed in bacterial system assessed as enzyme activity at 1 uM relative to control; design: scale not given: the % may be the effect or the level left
[15] = molecular target: Serine/threonine-protein kinase PLK4 (Homo sapiens) (UniProt O00444); test: Inhibition of partial length wild type human PLK4 expressed in mammalian system assessed as enzyme activity at 1 uM relative to control; design: scale not given: the % may be the effect or the level left
[16] = molecular target: T2, Serine/threonine-protein kinase B-raf (Homo sapiens, UniProt P15056, V600E); test: Inhibition of B-Raf V600E mutant (unknown origin) assessed as MEK1 phosphorylation using MEK1-Avitag as substrate after 1 hr by HTRF assay
T2 sequence (P15056 2-766 V600E limits assumed): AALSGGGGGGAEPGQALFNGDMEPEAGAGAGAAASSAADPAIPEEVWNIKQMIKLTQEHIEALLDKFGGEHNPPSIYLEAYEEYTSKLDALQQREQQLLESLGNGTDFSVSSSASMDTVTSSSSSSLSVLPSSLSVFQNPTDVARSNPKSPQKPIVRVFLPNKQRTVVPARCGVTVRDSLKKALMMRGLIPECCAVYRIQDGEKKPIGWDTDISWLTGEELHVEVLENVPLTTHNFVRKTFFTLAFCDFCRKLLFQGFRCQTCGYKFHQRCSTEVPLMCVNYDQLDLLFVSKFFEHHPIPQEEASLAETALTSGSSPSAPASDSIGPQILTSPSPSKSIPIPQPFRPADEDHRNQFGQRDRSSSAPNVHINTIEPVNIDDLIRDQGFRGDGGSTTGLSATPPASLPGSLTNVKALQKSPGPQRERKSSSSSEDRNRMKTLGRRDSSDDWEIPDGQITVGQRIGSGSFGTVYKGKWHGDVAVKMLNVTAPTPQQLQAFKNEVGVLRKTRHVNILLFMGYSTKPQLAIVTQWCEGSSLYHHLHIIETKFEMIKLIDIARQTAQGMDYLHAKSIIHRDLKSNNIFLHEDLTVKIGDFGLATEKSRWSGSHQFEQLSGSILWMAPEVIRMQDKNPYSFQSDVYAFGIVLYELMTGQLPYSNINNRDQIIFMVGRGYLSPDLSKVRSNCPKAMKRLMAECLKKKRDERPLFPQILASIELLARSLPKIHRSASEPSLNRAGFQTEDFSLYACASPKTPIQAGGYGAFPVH

[17] = molecular target: Bone morphogenetic protein receptor type-1A (Homo sapiens) (UniProt P36894); test: Inhibition of partial length wild type human BMPR1A expressed in bacterial system assessed as enzyme activity at 1 uM relative to control; design: scale not given: the % may be the effect or the level left
[18] = molecular target: T1, Serine/threonine-protein kinase B-raf; test: Inhibition of wild type B-Raf in human MIAPaCa2 cells assessed as reduction in ERK phosphorylation preincubated for 1 hr by Western blot method; type: cell-based, MIA PaCa-2
[19] = molecular target: Mitogen-activated protein kinase kinase kinase kinase 4 (Homo sapiens) (UniProt O95819); test: Inhibition of partial length wild type human MAP4K4 expressed in bacterial system assessed as enzyme activity at 1 uM relative to control; design: scale not given: the % may be the effect or the level left
[20] = molecular target: High affinity nerve growth factor receptor (Homo sapiens) (UniProt P04629); test: Inhibition of partial length wild type human TRKA expressed in mammalian system assessed as enzyme activity at 1 uM relative to control; design: scale not given: the % may be the effect or the level left
[21] = molecular target: RAC-beta serine/threonine-protein kinase (Homo sapiens) (UniProt P31751); test: Inhibition of partial length wild type human AKT2 expressed in bacterial system assessed as enzyme activity at 1 uM relative to control; design: scale not given: the % may be the effect or the level left
[22] = molecular target: Dual specificity mitogen-activated protein kinase kinase 5 (Homo sapiens) (UniProt Q13163); test: Inhibition of partial length wild type human MEK5 expressed in mammalian system assessed as enzyme activity at 1 uM relative to control; design: scale not given: the % may be the effect or the level left
[23] = molecular target: T2, Serine/threonine-protein kinase B-raf; test: Inhibition of B-Raf V600E mutant in human A375 cells assessed as ERK phosphorylation preincubated for 1 hr by Western blot method; type: cell-based, A-375
[24] = molecular target: Testis-specific serine/threonine-protein kinase 1 (Homo sapiens) (UniProt Q9BXA7); test: Inhibition of full length wild type human TSSK1B expressed in bacterial system assessed as enzyme activity at 1 uM relative to control; design: scale not given: the % may be the effect or the level left
[25] = molecular target: Dual specificity tyrosine-phosphorylation-regulated kinase 1B (Homo sapiens) (UniProt Q9Y463); test: Inhibition of partial length wild type human DYRK1B expressed in bacterial system assessed as enzyme activity at 1 uM relative to control; design: scale not given: the % may be the effect or the level left
[26] = molecular target: Mitogen-activated protein kinase kinase kinase 7 (Homo sapiens) (UniProt O43318); test: Inhibition of partial length wild type human TAK1 expressed in mammalian system assessed as enzyme activity at 1 uM relative to control; design: scale not given: the % may be the effect or the level left
Chain of Mitogen-activated protein kinase kinase kinase 7 (Homo sapiens) (O43318 whole entry): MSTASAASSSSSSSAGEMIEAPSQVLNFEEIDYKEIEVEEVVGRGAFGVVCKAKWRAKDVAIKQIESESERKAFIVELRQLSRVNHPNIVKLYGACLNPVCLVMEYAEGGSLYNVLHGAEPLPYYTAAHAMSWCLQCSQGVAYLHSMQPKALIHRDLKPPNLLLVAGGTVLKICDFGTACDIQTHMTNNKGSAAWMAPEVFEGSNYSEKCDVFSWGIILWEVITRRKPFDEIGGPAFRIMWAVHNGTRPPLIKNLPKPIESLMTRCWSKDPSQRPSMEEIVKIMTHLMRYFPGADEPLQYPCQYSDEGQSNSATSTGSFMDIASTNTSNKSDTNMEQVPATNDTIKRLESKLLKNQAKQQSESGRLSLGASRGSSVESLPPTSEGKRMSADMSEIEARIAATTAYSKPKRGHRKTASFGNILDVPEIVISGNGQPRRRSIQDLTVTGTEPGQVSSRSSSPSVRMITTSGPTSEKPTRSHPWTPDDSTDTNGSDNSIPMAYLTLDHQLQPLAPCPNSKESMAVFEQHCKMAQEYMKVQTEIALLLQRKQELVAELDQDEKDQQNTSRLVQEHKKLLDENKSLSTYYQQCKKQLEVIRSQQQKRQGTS

[27] = molecular target: Serine/threonine-protein kinase D2 (Homo sapiens) (UniProt Q9BZL6); test: Inhibition of partial length wild type human PRKD2 expressed in bacterial system assessed as enzyme activity at 1 uM relative to control; design: scale not given: the % may be the effect or the level left
[28] = molecular target: Cyclin-G-associated kinase (Homo sapiens) (UniProt O14976); test: Inhibition of partial length wild type human GAK expressed in bacterial system assessed as enzyme activity at 1 uM relative to control; design: scale not given: the % may be the effect or the level left
[29] = molecular target: Serine/threonine-protein kinase/endoribonuclease IRE1 (Homo sapiens) (UniProt O75460); test: Inhibition of partial length wild type human ERN1 expressed in mammalian system assessed as enzyme activity at 1 uM relative to control; design: scale not given: the % may be the effect or the level left
[30] = molecular target: Tyrosine-protein kinase Lyn (Homo sapiens) (UniProt P07948); test: Inhibition of partial length wild type human LYN expressed in bacterial system assessed as enzyme activity at 1 uM relative to control; design: scale not given: the % may be the effect or the level left
[31] = molecular target: ALK tyrosine kinase receptor (Homo sapiens) (UniProt Q9UM73); test: Inhibition of partial length wild type human ALK expressed in mammalian system assessed as enzyme activity at 1 uM relative to control; design: scale not given: the % may be the effect or the level left
Chain of ALK tyrosine kinase receptor (Homo sapiens) (Q9UM73 19-1620 limits assumed): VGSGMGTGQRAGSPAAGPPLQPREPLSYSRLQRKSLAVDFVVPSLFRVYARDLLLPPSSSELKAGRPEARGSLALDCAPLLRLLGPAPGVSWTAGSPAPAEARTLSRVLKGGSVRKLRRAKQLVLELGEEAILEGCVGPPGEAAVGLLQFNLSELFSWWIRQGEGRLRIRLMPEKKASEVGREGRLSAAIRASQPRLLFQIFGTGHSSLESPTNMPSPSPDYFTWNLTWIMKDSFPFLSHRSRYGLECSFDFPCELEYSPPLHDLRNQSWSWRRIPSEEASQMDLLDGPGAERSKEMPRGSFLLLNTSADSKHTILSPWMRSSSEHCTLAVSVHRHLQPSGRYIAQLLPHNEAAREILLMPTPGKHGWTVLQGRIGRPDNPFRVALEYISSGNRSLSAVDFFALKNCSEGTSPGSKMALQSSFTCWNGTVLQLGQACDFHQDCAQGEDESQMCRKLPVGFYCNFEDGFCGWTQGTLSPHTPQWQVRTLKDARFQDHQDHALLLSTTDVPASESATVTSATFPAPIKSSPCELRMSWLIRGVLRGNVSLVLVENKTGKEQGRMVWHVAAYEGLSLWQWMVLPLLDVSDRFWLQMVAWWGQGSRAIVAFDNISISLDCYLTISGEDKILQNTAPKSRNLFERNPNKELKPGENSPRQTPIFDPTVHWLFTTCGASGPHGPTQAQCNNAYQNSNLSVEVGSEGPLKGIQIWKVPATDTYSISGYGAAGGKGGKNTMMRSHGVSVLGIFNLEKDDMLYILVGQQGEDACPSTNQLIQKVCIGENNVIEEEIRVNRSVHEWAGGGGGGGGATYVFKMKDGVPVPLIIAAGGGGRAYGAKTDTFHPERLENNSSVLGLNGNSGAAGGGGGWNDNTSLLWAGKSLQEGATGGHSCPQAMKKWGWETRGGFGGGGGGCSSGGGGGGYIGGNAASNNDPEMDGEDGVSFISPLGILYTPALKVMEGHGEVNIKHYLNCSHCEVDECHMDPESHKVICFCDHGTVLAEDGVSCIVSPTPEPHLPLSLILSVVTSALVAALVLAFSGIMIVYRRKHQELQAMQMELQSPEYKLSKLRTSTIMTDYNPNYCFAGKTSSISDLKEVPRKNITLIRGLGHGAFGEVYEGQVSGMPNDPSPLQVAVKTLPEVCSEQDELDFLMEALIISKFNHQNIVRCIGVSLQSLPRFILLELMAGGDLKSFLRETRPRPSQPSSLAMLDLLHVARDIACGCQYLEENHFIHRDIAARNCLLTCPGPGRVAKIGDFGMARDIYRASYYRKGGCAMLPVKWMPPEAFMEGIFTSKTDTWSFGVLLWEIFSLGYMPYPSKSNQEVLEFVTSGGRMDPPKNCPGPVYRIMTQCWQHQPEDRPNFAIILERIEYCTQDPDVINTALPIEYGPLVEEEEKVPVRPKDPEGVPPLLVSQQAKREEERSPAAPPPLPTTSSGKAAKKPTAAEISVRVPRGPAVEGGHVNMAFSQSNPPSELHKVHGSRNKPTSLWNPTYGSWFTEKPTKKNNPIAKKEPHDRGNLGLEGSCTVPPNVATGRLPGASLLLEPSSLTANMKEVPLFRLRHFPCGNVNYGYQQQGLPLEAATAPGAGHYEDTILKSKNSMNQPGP

[32] = molecular target: Receptor-type tyrosine-protein kinase FLT3 (Homo sapiens) (UniProt P36888); test: Inhibition of partial length wild type human FLT3 expressed in bacterial system assessed as enzyme activity at 1 uM relative to control; design: scale not given: the % may be the effect or the level left

T1 sequence (P15056 whole entry): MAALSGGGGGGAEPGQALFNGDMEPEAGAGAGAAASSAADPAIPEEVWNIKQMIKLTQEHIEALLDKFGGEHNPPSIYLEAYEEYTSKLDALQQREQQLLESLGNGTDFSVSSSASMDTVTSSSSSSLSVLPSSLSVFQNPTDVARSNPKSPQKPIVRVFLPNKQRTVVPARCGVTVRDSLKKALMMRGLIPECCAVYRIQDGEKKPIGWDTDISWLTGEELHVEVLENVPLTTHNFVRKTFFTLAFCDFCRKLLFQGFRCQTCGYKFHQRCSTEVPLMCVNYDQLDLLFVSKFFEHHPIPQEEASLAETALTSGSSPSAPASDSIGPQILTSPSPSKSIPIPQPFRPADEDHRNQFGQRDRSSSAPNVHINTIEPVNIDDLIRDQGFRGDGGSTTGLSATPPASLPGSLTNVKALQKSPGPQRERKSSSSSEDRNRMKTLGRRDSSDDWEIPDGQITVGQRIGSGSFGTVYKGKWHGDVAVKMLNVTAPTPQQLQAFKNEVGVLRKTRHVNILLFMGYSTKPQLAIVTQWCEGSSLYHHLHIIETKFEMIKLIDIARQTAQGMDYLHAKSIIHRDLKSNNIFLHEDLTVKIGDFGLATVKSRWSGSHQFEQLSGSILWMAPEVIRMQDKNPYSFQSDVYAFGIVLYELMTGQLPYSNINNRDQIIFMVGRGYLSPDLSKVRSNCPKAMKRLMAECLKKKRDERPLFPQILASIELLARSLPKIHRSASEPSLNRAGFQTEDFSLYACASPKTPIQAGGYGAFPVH

IC50 [1]: 90 nM | Activity [2]: 68% | Activity [3]: 100% | Activity [4]: 100% | Activity [5]: 98% | Activity [6]: 87% | Activity [7]: 79% | Activity [8]: 83% | Activity [9]: 83% | Activity [10]: 64% | Activity [11]: 94% | Activity [12]: 100% | Activity [13]: 100% | Activity [14]: 90% | Activity [15]: 91% | IC50 [16]: 8 nM | Activity [17]: 63% | EC50 [18]: 1780 nM | Activity [19]: 98% | Activity [20]: 100% | Activity [21]: 100% | Activity [22]: 0.9% | IC50 [23]: 54 nM | Activity [24]: 100% | Activity [25]: 99% | Activity [26]: 70% | Activity [27]: 88% | Activity [28]: 78% | Activity [29]: 100% | Activity [30]: 93% | Activity [31]: 96% | Activity [32]: 71%
Compound: CN(C)S(=O)(=O)Nc1ccc(F)c(Nc2ncccc2-c2ncnc3[nH]cnc23)c1F
